{
  "source": "paper PMC12706794",
  "about": "“Identification and Characterization of a Small-Molecule Inhibitor of the Pseudomonas aeruginosa SOS Response” (ACS Infectious Diseases, 2025)",
  "key": {"[1]": {"target": "T1, RecAPa*-induced full-length LexAPa autoproteolysis (Pseudomonas aeruginosa, UniProt P37452)", "T1 construct": "Full-length LexAPa was used instead of FlAsH-LexAPa ^CTD; made in house; host or cells: E. coli BL21(DE3)", "T1 sequence (P37452 2-204)": "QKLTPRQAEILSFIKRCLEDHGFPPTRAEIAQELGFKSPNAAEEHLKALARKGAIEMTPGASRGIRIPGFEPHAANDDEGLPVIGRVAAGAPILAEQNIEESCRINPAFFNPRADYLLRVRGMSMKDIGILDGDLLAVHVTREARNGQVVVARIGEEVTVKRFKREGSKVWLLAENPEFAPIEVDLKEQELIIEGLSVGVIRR", "experiment": "RecAPa*-induced LexAPa autoproteolysis assay by SDS-PAGE", "type": "biochemical, P. aeruginosa", "conditions": "1 μM full-length LexAPa, 1 μM RecA*Pa, 1 h at 37 °C", "experimental": "To further validate the activity of A12 on RecA*Pa-LexAPa, an assay was performed using full-length LexAPa, and autoproteolysis was followed by SDS-PAGE in the presence of different concentrations of A12 (Figure E). Cleavage reactions were performed at 1 μM full-length LexAPa, initiated by the addition of 1 μM RecA*Pa, and stopped after a 1 h incubation at 37 °C, corresponding to the same conditions used for the FP assay.\nSDS-PAGE was used as an orthogonal technique to FP to validate the dose-dependent inhibition of RecAPa*-induced LexAPa autocleavage by the selected hit compound.\nFull-length LexAPa was used instead of FlAsH-LexAPa ^CTD, but reaction volumes, molar concentrations of reagents, incubation time, and temperature were kept the same as in the FP-based assay. Following 1 h of incubation at 37 °C in the presence of RecAPa*, reactions were stopped by adding Laemmli solubilization buffer and freezing the samples at −20 °C.\nSamples were boiled 5 min at 95 °C before being loaded on 4–12% polyacrylamide gels. After Coomassie staining of the gels, the intensity of the bands corresponding to LexAPa and its autoproteolytic fragments was quantified using ImageJ. Data obtained from LexACTD/NTD bands densitometry were used to estimate LexA self-cleavage percent inhibition (scaling all the data from 0%, positive control, to 100%, negative control). […]"}, "[2]": {"target": "T2, RecAPa (Pseudomonas aeruginosa, UniProt P08280)", "T2 construct": "made in house; host or cells: E. coli BL21(DE3)", "experiment": "Isothermal titration calorimetry on RecAPa", "type": "binding, P. aeruginosa", "experimental": "(§1) To investigate deeper the binding of A12 to the two members of the P. aeruginosa SOS complex, ITC was performed on RecAPa and LexAPa ^S125A (Figure D,E). The integrated binding isotherms of both proteins were best fitted by a “one set of sites” model.\n(§2) 64 μM RecAPa and 58.5 μM LexAPa ^S125A were titrated with the selected compound (2.5 mM solution) using a Microcal PEAQ-ITC instrument (Malvern Panalytical) at 25 °C with a stirring rate of 750 rpm. Proteins and the ligand were dissolved in ITC Buffer (20 mM Tris–HCl, 150 mM NaCl, 5% v/v DMSO, pH 7.5). An initial 0.4 μL injection (excluded from data analysis) was followed by 24 injections of 1.5 μL with a spacing of 150 s between each addition. Blank experiments were performed by injecting the titrant compound in a protein-devoid ITC Buffer. Blank curves were subtracted from all of the experiments. Data were analyzed by using the MicroCal PEAQ-ITC Evaluation software (Malvern Panalytical). Integrated heat signals were fitted by a “one set of sites” binding model to obtain enthalpy changes (ΔH), dissociation constants (K D), and stoichiometry of binding."}, "[3]": {"target": "T3, LexAPa S125A (Pseudomonas aeruginosa, UniProt P37452, S125A)", "T3 construct": "Concerning full-length LexAPa ^S125A, a biphasic melting curve was obtained for the pure protein; made in house; host or cells: E. coli BL21(DE3)", "T3 sequence (P37452 2-204 S125A)": "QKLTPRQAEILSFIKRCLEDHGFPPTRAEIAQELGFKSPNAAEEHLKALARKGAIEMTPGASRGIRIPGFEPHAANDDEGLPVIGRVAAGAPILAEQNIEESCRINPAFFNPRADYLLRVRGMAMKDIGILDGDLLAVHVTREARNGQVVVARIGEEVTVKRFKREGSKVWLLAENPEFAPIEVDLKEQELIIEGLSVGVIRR", "experiment": "Isothermal titration calorimetry on LexAPa S125A", "type": "binding, P. aeruginosa", "experimental": "as §1, §2"}, "[4]": {"tested_on": "P. aeruginosa PAO1 on A549 lung epithelial cells", "experiment": "P. aeruginosa PAO1 colonization of A549 lung epithelial cells", "type": "cell-based"}, "[5]": {"tested_on": "THP-1-derived macrophages", "experiment": "Cytotoxicity assessment by MTT assay, THP-1-derived macrophages", "type": "cell-based, Human", "conditions": "combination of ciprofloxacin 0.5 μg/mL and A12 100 μg/mL, 3 h", "experimental": "A549 cells were seeded in flat-bottom 96-well plates at 5 × 10^4 cells/well. THP-1 monocytes were differentiated into macrophages using PMA as described above, rested in PMA-free medium, detached by trypsinization, and seeded at 5 × 10^4 cells/well. Plates were incubated overnight to allow cell attachment. […] Test medium was then removed and replaced with fresh medium containing 0.5 mg/mL 3-(4,5-dimethylthiazol-2-yl)-2,5-diphenyltetrazolium bromide (MTT). After a 2 h incubation, the medium was discarded, formazan crystals were solubilized with 100 μL of DMSO, and absorbance was measured at 570 nm using a spectrophotometer (Varioskan LUX Multimode Microplate Reader, Thermo Fisher Scientific). Cell viability was expressed as a percentage relative to the untreated controls."}, "[6]": {"target": "T2, RecAPa", "experiment": "ESI-MS analysis of RecAPa preincubated with A12", "type": "binding, P. aeruginosa", "conditions": "2 mM A12, 2 h at 25 °C; condensation, Lys285", "experimental": "(§3) Then, ESI-MS analysis was carried out on both RecAPa and LexAPa alone and preincubated with A12 (referred to as RecAPa-A12 and LexAPa-A12, respectively).\n(§4) MS analysis was carried out on 5 μL samples of compound A12 (2 mM), of the proteins 6His-LexAPa and 6His-RecAPa (50 μM), and of the same proteins incubated with 2 mM A12 (2 h incubation at 25 °C, 10% v/v DMSO in 100 mM NaHCO3 pH 7.0). Aliquots of the latter samples were treated with 5 mM dithiothreitol (DTT) for 1 h at 25 °C before being buffer-exchanged in 100 mM NaHCO3 at pH 7.0. Samples were analyzed by an electrospray ionization (ESI) mass spectrometer equipped with a Xevo G2-XS ESI-Q-TOF mass spectrometer (Waters Corporation, Milford, Massachusetts, USA). Measurements were carried out at 1.5–1.8 kV capillary voltage and 30–40 V cone voltage.\n(§5) Tryptic digestion was obtained at a 1:20 trypsin to protein ratio (by weight) after the incubation of the proteins (6His-LexAPa and 6His-RecAPa) with chemical compound A12. The reaction was left at 37 °C overnight and then stopped by freezing at – 20 °C. Proteolytic mixtures were analyzed by LC–MS, using an Agilent AdvanceBio Peptide Map column (2.1 × 150 mm × 2.7 μm; Santa Clara, CA, USA) connected to an Acquity H-Class instrument (Waters Corporation, Milford, Massachusetts, USA). […]"}, "[7]": {"target": "T4, LexAPa (Pseudomonas aeruginosa, UniProt P37452)", "T4 construct": "different LexAPa variants (FlAsH-LexAPa ^CTD vs full-length LexAPa) were used in the two assays; made in house; host or cells: E. coli BL21(DE3)", "T4 sequence (P37452 whole entry)": "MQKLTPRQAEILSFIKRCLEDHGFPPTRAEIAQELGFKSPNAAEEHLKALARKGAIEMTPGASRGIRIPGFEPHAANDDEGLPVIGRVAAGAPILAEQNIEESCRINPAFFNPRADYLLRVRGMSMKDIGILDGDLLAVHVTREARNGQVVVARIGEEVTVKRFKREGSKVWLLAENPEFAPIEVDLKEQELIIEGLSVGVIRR", "experiment": "ESI-MS analysis of LexAPa preincubated with A12", "type": "binding, P. aeruginosa", "conditions": "2 mM A12, 2 h at 25 °C; disulfide bond at Cys104, lost with 5 mM DTT", "experimental": "as §3, §4, §5"}, "[8]": {"conditions": "combination of ciprofloxacin 0.5 μg/mL and A12 100 μg/mL"}},
  "data": [
    {"smiles": "O=C(O)CCNc1ccccc1S", "note": "[A12, 3-(2-sulfanylanilino)propanoic acid]", "values": [
      {"measurement": "IC50", "setting": "[1]", "value": "58 ± 5", "unit": "µM"},
      {"measurement": "Kd", "setting": "[2]", "value": "18 ± 3", "unit": "µM"},
      {"measurement": "Kd", "setting": "[3]", "value": "7.4 ± 0.5", "unit": "µM"},
      {"measurement": "Intracellular (internalized) burden of PAO1 in A549 cells", "setting": "[4]; A12 100 μg/mL alone", "value": "reduced the internalized bacterial growth"},
      {"measurement": "Intracellular (internalized) burden of PAO1 in A549 cells", "setting": "[4]; [8]", "value": "synergized with ciprofloxacin"},
      {"measurement": "Total (adherent + intracellular) burden of PAO1 on A549 lung cells", "setting": "[4]; [8]", "value": "significantly reduced colonization"},
      {"measurement": "Cell viability compared to the untreated control", "setting": "[5]", "value": "higher than 80%"},
      {"measurement": "Mass difference of A12-modified RecAPa versus unmodified protein", "setting": "[6]", "value": 179, "unit": "Da"},
      {"measurement": "Mass difference of A12-modified LexAPa versus unmodified protein", "setting": "[7]", "value": 195, "unit": "Da"}
    ]}
  ]
}
